Data taken from PMC12302426, “Dihydrokoumine, a dual-target analgesic with reduced side effects isolated from a traditional Chinese medicine” (Journal of Advanced Research, 2024).

What was measured:
[1] = tested on: C57BL/6 mice; test: Acute toxicity study; format: in vivo; conditions: 200 mg/kg daily for 14 days
Experimental: Sixteen C57BL/6 mice (25 ± 1 g, 8 males, 8 females) were used in acute toxicity studies. The mice were randomly divided into 2 groups (half male, half female each group) and treated with either solvent mixture (control) or 200 mg/kg DK (DK-treated) daily for 14 days. Throughout the study, the animals were monitored for motor activity, mortality, and body weight changes, which were recorded every other day.
At the end of the experiment (24 h after final DK administration), blood samples were collected via direct heart puncture, allowed to clot at room temperature, and centrifuged at 3000 rpm for 15 min. Serum was separated and stored at […] for biochemical analysis. Liver and renal injury markers, including aspartate transaminase (AST), alanine transaminase (ALT), UREA, CREA, albumin (ALB), urine acid (UA) and Glucose (Glu), were measured using an automatic biochemical analyzer (Chemray 240, 420 and 800, Rayto, China).
Following blood collection, the mice were sacrificed, and the heart, liver, spleen, lung and kidney were excised. These tissues were fixed in 4 % paraformaldehyde (PFA), dehydrated gradually using ethanol (50–100 %), and embedded in paraffin after clearing with xylene. Sections ([…] thick) were stained with hematoxylin and eosin (HE) for examination.

[2] = biological target: T1, adrenergic receptor β2 (Homo sapiens, UniProt P07550); test: DMR desensitization assay, A431, probe isoprenaline; format: cell-based; conditions: 100 μM DK
T1 construct: endogenous in cells; host or cells: A431
Experimental: (§1) DMR assays were performed using an Epic® BT system (Corning, NY, USA). All used cell lines were directly seeded in Epic 384-well biosensor microplates with a seeding density of 25,000 cells per well. After being cultured for about 22 h, the cells formed a monolayer with a confluency of about 95 % in the cell culture medium. Then the cells were manually washed using assay buffer (1 × HBSS buffer, 10 mM HEPES, pH = 7.4) and maintained in 30 μL of the assay buffer for 1 h. All samples were dissolved in DMSO and diluted freshly with the assay buffer containing 0.1 % BSA.
(§2) The receptor selectivity was evaluated against a set of G protein-coupled receptors (GPCRs), including opioid receptor (Delta/Kappa/NOP), dopamine receptor (D1/D2), orphan receptor (GPR35), adrenergic receptor (α2A/β2), serotonin receptor (5HT2A), histamine receptor (H1) and cannabinoid receptor (CB1). Following a 1-hour pretreatment with DK, a 2-min baseline was established before introducing probes and monitoring DMR signals for another hour. The cells and probes were as follows: Delta, HEK293-Delta, SNC162; Kappa, HEK293-Kappa, ICI199441; NOP, HEK293-NOP, MCOPPB; D1, HEK293-D1, dopamine; D2, HEK293-D2, dopamine; GPR35, CHO-K1-hGPR35, zaprinast; 5HT2A, HEK293-5HT2A, 5-hydroxytryptamine; α2A, HEK293-α2A, L-Noradrenaline; β2, A431, isoprenaline; H1, A431, histamine; CB1, CHO-K1-CB1, CP 55940. […]

[3] = tested on: HUVEC cells; test: Cytotoxicity assay (CCK-8), HUVEC; format: cell-based; conditions: 24 h
Experimental: (§3) HEK293T, CHO, and HUVEC cell lines were cultured overnight in 96-well plates before exposure to compounds for 24 h. Cell viability was evaluated using the Cell Counting Kit-8 (CCK-8, Beyotime Biotechnology, China), and absorbance at 450 nm was measured with a microplate reader. Cell survival rates were calculated relative to control conditions.

[4] = tested on: C57BL/6 male mice; test: Hot-plate assay (acute pain); format: in vivo
Experimental: The hot-plate test in mice was conducted following previously established method. Six-week-old C57BL/6 male mice were used in hot-plate assay (n = 6). Hot-plate response latency (55°C) after drug treatment was used to measure antinociceptive effect, where response was defined by the animal either by licking paws, flicking paws or jumping. Mice were exposed to the hot plate (Ugo Basile model 7280, Comerio, Italy) for a maximum of 20 s to avoid tissue damage. After three days’ baseline measure, mice were injected intraperitoneally (5 mL/kg) with the solvent mixture, morphine (5 mg/kg) or DK (20, 40 mg/kg) and latency was tested 0.5-, 1-, 2-, 3- and 4- hours post-administration. Evaluation of MOR agonistic and M3R antagonistic activity of DK, naloxone (2 mg/kg) and oxotremorine (0.4 mg/kg) were first injected intraperitoneally, immediately followed by the injection of morphine (5 mg/kg, evaluation of MOR) or DK (20 mg/kg).

[5] = biological target: T2, M4R (Homo sapiens, UniProt P08173); test: FLIPR assay in HEK293-M4 cells (carbachol-induced Ca2+); format: cell-based; conditions: DK pretreatment one hour
T2 construct: expressed in transfected cells
Experimental: (§4) FLIPR assay was carried out as reported earlier. Cell lines were seeded in 96-well plates with black walls (Greiner, USA) at 8.0 × 10^4 cells per well. After approximately 22 h of incubation, the cells were exposed to Calcium-6 dye (Molecular Devices, USA) in HBSS buffer supplemented with 20 mM HEPES (pH 7.4) at 37°C for one hour. Samples, redissolved in DMSO and housed in 96-well drug plates, underwent dilution with FLIPR buffer and subsequent automated introduction to the cells. […] […] Results were presented as fluorescence (arbitrary units) plotted against time.

[6] = tested on: HEK293 cells; test: DMR assay in untransfected HEK293 cells (background); format: cell-based; conditions: HEK293 cells without MOR
Experimental: as §1
The DMR assays were conducted as follows. […] In the case of the DMR desensitization assay, cells were pretreated with analytes for one hour before introducing a specific agonist at the indicated concentration, and the agonist-induced DMR signals were monitored for one hour. Finally, for the DMR antagonist assay, cells underwent a 1-hour pretreatment with an antagonist before the addition of a specific agonist at the indicated concentration, and subsequent DMR signals were recorded over one hour.

[7] = biological target: T3, M1R (Homo sapiens, UniProt P11229); test: FLIPR assay in CHO-M1 cells (carbachol-induced Ca2+); format: cell-based; conditions: DK pretreatment one hour
T3 construct: expressed in transfected cells
Experimental: as §4

[8] = tested on: C57BL/6 male mice; test: Antinociceptive tolerance, repeated injection over 7 days, hot-plate assay; format: in vivo; conditions: DK 20 and 40 mg/kg daily over 7 days, compared with morphine 5 mg/kg
Experimental: Subsequent tolerance assessment was conducted through a repeated-injection protocol employing the hot-plate assay. Mice were injected intraperitoneally (5 mL/kg) with the solvent mixture, morphine (5 mg/kg) or DK (20, 40 mg/kg) daily for a continuous seven-day period. The diminishment of the antinociception of drugs in the assay was employed to evaluate the tolerance, with latency measured one hour after drug administration throughout the week.

[9] = tested on: HEK293T cells; test: Cytotoxicity assay (CCK-8), HEK293T; format: cell-based; conditions: 24 h
Experimental: as §3

[10] = biological target: T4, adrenergic receptor α2A (Homo sapiens, UniProt P08913); test: DMR desensitization assay, HEK293-α2A, probe L-Noradrenaline; format: cell-based; conditions: 100 μM DK
T4 construct: expressed in transfected cells; host or cells: HEK293-α2A
Experimental: as §1, §2

T2 sequence (P08173 whole entry): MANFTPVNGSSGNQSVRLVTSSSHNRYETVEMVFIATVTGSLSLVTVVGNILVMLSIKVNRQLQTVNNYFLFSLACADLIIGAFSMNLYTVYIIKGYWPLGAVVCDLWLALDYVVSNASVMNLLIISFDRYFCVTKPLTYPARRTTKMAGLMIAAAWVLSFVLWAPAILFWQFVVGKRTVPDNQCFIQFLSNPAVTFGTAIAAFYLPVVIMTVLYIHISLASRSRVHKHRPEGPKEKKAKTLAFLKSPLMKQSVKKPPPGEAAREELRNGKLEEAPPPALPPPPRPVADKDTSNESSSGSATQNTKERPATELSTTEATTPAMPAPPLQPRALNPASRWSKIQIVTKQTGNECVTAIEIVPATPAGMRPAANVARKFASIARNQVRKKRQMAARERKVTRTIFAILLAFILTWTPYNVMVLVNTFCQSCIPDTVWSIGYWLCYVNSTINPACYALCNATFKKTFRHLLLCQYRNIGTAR
T1 sequence (P07550 whole entry): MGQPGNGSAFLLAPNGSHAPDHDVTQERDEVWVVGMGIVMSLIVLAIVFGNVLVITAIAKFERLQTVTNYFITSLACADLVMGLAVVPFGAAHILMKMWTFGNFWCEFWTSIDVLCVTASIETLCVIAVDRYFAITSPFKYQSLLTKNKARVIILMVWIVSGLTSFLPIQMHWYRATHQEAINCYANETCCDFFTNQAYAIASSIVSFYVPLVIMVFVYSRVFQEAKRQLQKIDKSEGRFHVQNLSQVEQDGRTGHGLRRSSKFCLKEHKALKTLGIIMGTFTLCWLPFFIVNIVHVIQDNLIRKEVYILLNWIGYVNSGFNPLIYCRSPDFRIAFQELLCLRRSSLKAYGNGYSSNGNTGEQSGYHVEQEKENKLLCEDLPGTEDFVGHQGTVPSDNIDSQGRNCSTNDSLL
T3 sequence (P11229 whole entry): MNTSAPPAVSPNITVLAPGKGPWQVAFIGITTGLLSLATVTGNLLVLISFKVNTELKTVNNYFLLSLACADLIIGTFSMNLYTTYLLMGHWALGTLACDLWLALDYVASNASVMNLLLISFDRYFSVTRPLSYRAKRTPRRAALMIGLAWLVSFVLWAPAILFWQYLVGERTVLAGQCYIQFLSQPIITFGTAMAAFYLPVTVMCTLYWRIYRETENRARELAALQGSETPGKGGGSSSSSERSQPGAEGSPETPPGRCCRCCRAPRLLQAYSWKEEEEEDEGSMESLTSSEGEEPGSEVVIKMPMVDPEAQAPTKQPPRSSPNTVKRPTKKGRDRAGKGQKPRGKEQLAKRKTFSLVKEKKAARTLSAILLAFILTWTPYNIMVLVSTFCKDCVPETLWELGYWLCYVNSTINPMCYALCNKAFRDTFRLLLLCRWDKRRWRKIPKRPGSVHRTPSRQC
T4 sequence (P08913 whole entry): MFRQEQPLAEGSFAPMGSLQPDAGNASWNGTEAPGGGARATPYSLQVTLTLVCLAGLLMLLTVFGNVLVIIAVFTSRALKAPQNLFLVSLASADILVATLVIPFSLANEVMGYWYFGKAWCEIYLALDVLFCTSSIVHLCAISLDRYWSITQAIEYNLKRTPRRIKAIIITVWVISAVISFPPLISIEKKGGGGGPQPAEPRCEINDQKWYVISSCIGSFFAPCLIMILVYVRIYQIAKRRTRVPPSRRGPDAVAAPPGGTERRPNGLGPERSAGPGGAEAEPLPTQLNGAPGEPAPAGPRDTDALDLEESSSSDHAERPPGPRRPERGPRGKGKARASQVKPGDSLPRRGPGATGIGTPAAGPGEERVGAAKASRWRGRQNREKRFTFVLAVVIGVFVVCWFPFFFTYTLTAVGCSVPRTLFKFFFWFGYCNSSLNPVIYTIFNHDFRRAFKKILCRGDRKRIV

With `C=CC12CN(C)C3CC14c1ccccc1NC4C1CC2C3CO1` (stereo not shown) [DK] the body weight gain [1] was “no significant differences between DK-treated and control groups”, the “organ coefficients (heart, liver, spleen, lung, kidney)” value [1] was “comparable between the two groups” and the “serum biochemical indicators and histological analysis of major organs (HE staining)” value [1] was “no significant structural or biochemical differences”. The “visible abnormalities of major organs” value [1] was “No visible abnormalities were detected in the major organs”, the “reduction of probe DMR response (desensitization)” value [2] was “almost unable to reduce the response” and the “cytotoxicity (cell viability)” value [3] was “noncytotoxic”. For the same molecule, the “effect of naloxone on pain threshold in hot plate assay” value ([4]; DK 20 mg/kg, naloxone 2 mg/kg) was “naloxone failed to decrease the pain threshold of DK”, the “effect of oxotremorine on antinociception in hot plate assay” value ([4]; DK 20 mg/kg, oxotremorine 0.4 mg/kg) was “oxotremorine markedly diminished the antinociceptive efficacy of DK” and the duration of antinociception ([4]; DK 20, 40 mg/kg i.p.) was “at least 3 h”. For the same molecule, the “antinociception (hot-plate response latency)” value ([4]; DK 20, 40 mg/kg i.p., 55°C) was “potent antinociception in a dose-dependent manner”, the “inhibition of carbachol-induced Ca2+ response” value [5] was “could not concentration-dependently inhibit” and the “background DMR response” value [6] was “No background response”. The “inhibition of carbachol-induced Ca2+ response” value [7] was “could not concentration-dependently inhibit”, the antinociceptive tolerance [8] was “no antinociceptive tolerance was observed” and the “cytotoxicity (cell viability)” value [9] was “had a little effect on HEK293T cells but not in a concentration-dependent manner”. The “reduction of probe DMR response (desensitization)” value [10] was “almost unable to reduce the response”.
